For the assay, the target named is superoxide-dependent, iron-promoted lipid peroxidation of native rat heart cardiac lipid liposomes. Kind of assay: Lipid peroxidation inhibition (in vitro testing of antiperoxidative agents, ANTI-OX), hypoxanthine-xanthine oxidase-Fe3+.ADP, rat cardiac liposomes, MDA equivalents. As to conditions: 60 min, 37° C., screened at 1.0 μM, IC50 determined if inhibition ≥ 50%, read-out: ANTI-OX IC-50. It is filed as biochemical. Here is the method:
The test system employs hypoxanthine-xanthine oxidase (XO)-Fe^3+. ADP as the free radical generator and purified, native rat-heart membrane phosphoglyceride in Hepes-KCl buffer, pH 7.4, as the substrate. Inhibition of superoxide-dependent, iron-promoted lipid peroxidation in the linear reaction phase (after 1 hour of reaction) is measured as the net formation of thiobarbituric acid (TBA)-reactive material. In this system, the TBA-reactive material, isolated by HPLC, is exclusively (>95%) malondialdehyde (MDA), a fragmentation end-product arising from fatty acyl hydroperoxides and cyclic endoperoxides. […]
a) Isolation and purification of Rat Cardiac Lipid
Conscious male Sprague-Dawley rats (~275g) maintained on a normal rodent diet were decapitated. The hearts were rapidly removed and perfused via the aorta with ice-cold 10 mM Hepes buffer, pH 7.4. The aorta and atria were removed, and the ventricular tissue was blotted and weighed (wet weight). The hearts were minced on ice with scissors and finally homogenized (100 mg tissue/ml ice-cold buffer) for 15 seconds (3×5 seconds) with a Tekmar Tissumizer at "maximal" setting. The homogenate was filtered through 4-ply cheesecloth, and homogenate lipids were extracted and purified by a modified Bligh-Dyer procedure (M.D. Marshall and M. Kates, Biochem. Biophys. Acta 260, 558 (1972). The cardiac lipids were stored in CHCl3 under nitrogen at -20° C. […]
b) Preparation of Cardiac Liposomes
Liposomes were prepared from extracted and purified, native rat heart cardiac lipid and were used as substrate for free-radical attack. Cardiac lipid (in CHCl3) was placed in a glass flask and evaporated to dryness under nitrogen at room temperature; the flask was gently rotated during evaporation to yield a thin, dry lipid film. The lipid was taken up in 10 mM Hepes-0.145M KCl, pH 7.4, and was resuspended by indirect an aerobic sonification for 15 minutes at room temperature. The liposome suspension was used immediately. […]
c) preparation of Fe^3+ -ADP Chelate
A chelate was formed in Hepes-KCl buffer between Fe^3+ (1.0mM FeCl3, final concentration) and ADP (10mM, final concentration) at pH 7.4 with stirring at room temperature. Chelation was allowed to proceed for 90 minutes prior to use. The chelate was prepared fresh for each days experiments to ensure iron solubility, effective chelation, and valence state. […]
d) Thiobarbituric Acid Reaction or Determination of Malondialdehvde Equivalents Malondialdehyde (MDA) equivalents were measured as thiobarbituric acid (TBA)-reactive material by the following modification of published methods. The reaction mixture. prepared fresh daily, contained water: BHT ([…] BHT in absolute ethanol): TBA (1.5% TBA in 0.2M Tris, pH 7.0) in the volume ratio 1:1:5. To each 1.0 ml of peroxidation reaction assayed (see below), 0.35 ml reaction mixture was added. After thorough mixing, the tubes were incubated in an 80° C. shaking water bath for 30 minutes. After this time, the tubes were plunged into an ice water bath, and the reaction was immediately stopped with 0.5 ml ice-cold 91% TCA followed by 2.0 ml CHCl3 After centrifugation for 30 minutes at 2000 rpm in a Sorval HL-8 rotor (4° C.), the absorbance of the washed, pink upper phase was read at 532 nm. A standard curve (0.8-40.0 nmol MDA) was run with every assay. For each curve, MDA was freshly prepared by acidification of 1,1,3,3 -tetraethoxypropane with 75% TCA-2.3N HCl (0.15 ml acid mixture with 1.0 ml suitably diluted tetraethoxypropane). Computer-assisted regression analysis of the standard curve was used to quantify the molar amounts of MDA equivalents in the experimental samples. […]
e) Lipid peroxidation Reaction
Cardiac liposomes were subjected to superoxidedependent. iron-promoted peroxidation in glass vessels to avoid the well-known antioxidant effects of many common polymerizing agents used to fabricate plastic labware. […]
On to `COc1cccc(C#CC2(C)CCc3c(C)c(O)c(C)c(C)c3O2)c1` (racemic) [Example 22, rac-3,4-Dihydro-2-(3-methoxyphenyl)ethynyl)-2,5,7,8-tetra-methyl-2H-1-benzopyran-6-ol], for which the IC50 was over 1000 nM. Regarding `Cc1c(C)c2c(c(C)c1O)CCC(C)(C#Cc1ccc(-c3cccnc3)cc1)O2` (racemic) [Example 24, rac-3,4-Dihydro-2,5,7,8-tetramethyl-2-{[4-(3-pyridinyl)-phenyl]ethynyl}-2H-1-benzopyran-6-ol], the IC50 came out at 800 nM. Take `Cc1c(C)c2c(c(C)c1O)CCC(C)(C#Cc1cnc3ccccc3c1)O2` (racemic) [Example 33, rac-3,4-Dihydro-2,5,7,8-tetramethyl-2-(3-quinolinylethynyl)-2H-1-benzopyran-6-ol]: the IC50 is 850 nM. As for `COc1cc(CO)cc(C#CC2(C)CCc3c(C)c(O)c(C)c(C)c3O2)c1O` (racemic) [Example 29, rac-3-[(3,4-Dihydro-6-hydroxy-2,5,7,8-tetramethyl-2H-1-benzopyran-2-yl)ethynyl]-4-hydroxy-5-methoxybenzenemethanol], the figure is over 1000 nM; as for `COc1ccc(C#CC2(C)CCc3c(C)c(O)c(C)c(C)c3O2)cc1OC(C)=O` (racemic) [Example 20, rac-2-[(3-Acetyloxy-4-methoxyphenyl)ethynyl]-3.4-dihydro-2,5,7,8-tetramethyl-2H-1-benzopyran-6-ol], over 1000 nM; as for `Cc1c(C)c2c(c(C)c1O)CCC(C)(C#Cc1ccc(-c3ccccn3)s1)O2` (racemic) [Example 26, rac-3,4-Dihydro-2,5,7,8-tetramethyl-2-{[5-(2-pyridinyl)-2-thienyl]ethynyl}-2H-1-benzopyran-6-ol], 550 nM. As for `Cc1c(C)c2c(c(C)c1O)CCC(C)(C#Cc1ccccc1N)O2` (racemic) [Example 40, rac-2-[(2-Aminophenyl)ethynyl]-3,4-dihydro-2,5,7,8-tetramethyl-2H-1-benzopyran-6-ol], the figure is over 1000 nM; as for `CCCCc1ccc(CCC2(C)CCc3c(C)c(O)c(C)c(C)c3O2)s1` (racemic) [Example 66, rac-2-[2-(5-Butyl-2-thienyl)ethyl]-3,4-dihydro-2,5,7,8-tetramethyl-2H-1-benzopyran-6-ol], over 1000 nM.

On to `Cc1c(C)c2c(c(C)c1O)CCC(C)(C#Cc1ccccc1O)O2` (racemic) [Example 50 (2-HO-phenyl), rac-3,4-Dihydro-2-[(2-hydroxyphenyl)ethynyl]-2,5,7,8-tetramethyl-2H-1-benzopyran-6-ol], for which the IC50 turned out to be 700 nM. `COC(=O)c1cc(C#CC2(C)CCc3c(C)c(O)c(C)c(C)c3O2)ccc1O` (racemic) [Example 23, rac-5-(3,4-Dihydro-6-hydroxy-2,5,7,8-tetramethyl-2H-1-benzopyran-2-yl)ethynyl]-2-hydroxybenzoic acid methyl ester]: the IC50 stood at 900 nM.

Consider `COc1cccc(CCC2(C)CCc3c(C)c(O)c(C)c(C)c3O2)c1` (racemic) [Example 62, rac-3,4-Dihydro-2-[2-(3-methoxyphenyl)ethyl]-2,5,7,8-tetramethyl-2H-1-benzopyran-6-ol], for which the IC50 is over 1000 nM.

Regarding `COC(=O)c1cc(CCC2(C)CCc3c(C)c(O)c(C)c(C)c3O2)ccc1O` (racemic) [Example 63, rac-5-[2-(3,4-Dihydro-6-hydroxy-2,5,7,8-tetramethyl-2H-1-benzopyran-2-yl)ethyl]-2-hydroxybenzoic acid methyl ester], the IC50 is over 1000 nM. As for `COc1cc(C=O)cc(C#CC2(C)CCc3c(C)c(O)c(C)c(C)c3O2)c1O` (racemic) [Example 28, rac-3-[(3,4-Dihydro-6-hydroxy-2,5,7,8-tetramethyl-2H-1-benzopyran-2-yl)ethynyl]-4-hydroxy-5-methoxybenzaldehyde], the IC50 was over 1000 nM. Turning to `Cc1c(C)c2c(c(C)c1O)CCC(C)(C#Cc1cncc3ccccc13)O2` (racemic) [Example 34, rac-3,4-Dihydro-2-[(4-isoquinolinyl)ethynyl]-2,5,7,8-tetramethyl-2H-1-benzopyran-6-ol], the IC50 is over 1000 nM. On to `COc1cc(C=NO)cc(C#CC2(C)CCc3c(C)c(O)c(C)c(C)c3O2)c1O` (racemic) [Example 30, rac-3-[(3,4-Dihydro-6-hydroxy-2,5,7,8-tetramethyl-2H-1-benzopyran-2yl)ethynyl]-4-hydroxy-5-methoxybenzaldehydeoxime], for which the IC50 is over 1000 nM.

Take `Cc1c(C)c2c(c(C)c1O)CCC(C)(CCc1ccc(-c3cccnc3)cc1)O2` (racemic) [Example 64, rac-3,4-Dihydro-2,5,7,8-tetramethyl-2-{2-[4-(3-pyridinyl)-phenyl]ethyl}-2H-1-benzopyran-6-ol]: the IC50 was over 1000 nM. Consider `Cc1c(C)c2c(c(C)c1O)CCC(C)(C#Cc1ccc3c(c1)N(C)C(=O)CO3)O2` (stereo not shown) [Example 48], for which the IC50 was determined as 750 nM. For the compound `Cc1c(C)c2c(c(C)c1O)CCC(C)(C#Cc1cccc3ccccc13)O2` (racemic) [Example 39, rac-3,4-Dihydro-2,5,7,8-tetramethyl-2-(1-naphthyl)ethynyl-2H-1-benzopyran-6-ol], the IC50 was over 1000 nM. With `COc1cc(CO)cc2cc(C3(C)CCc4c(C)c(O)c(C)c(C)c4O3)oc12` (racemic) [Example 55, rac-2-(3,4-Dihydro-6-hydroxy-2,5,7,8-tetramethyl-2H-1-benzopyran-2-yl)-7-methoxybenzofuran-5-methanol], the IC50 amounted to 850 nM. On to `Cc1c(C)c2c(c(C)c1O)CCC(C)(CCc1ccc(-c3ccccn3)s1)O2` (racemic) [Example 65, rac-3,4-Dihydro-2,5,7,8-tetramethyl-2-{2-[5-(2-pyridinyl)-2-thienyl]ethyl}-2H-1-benzopyran-6ol], for which the IC50 is over 1000 nM. As for `COc1ccc(CCC2(C)CCc3c(C)c(O)c(C)c(C)c3O2)cc1OC(C)=O` (racemic) [Example 60, rac-2-{2-[3-(Acetyloxy)-4-methoxyphenyl]ethyl}-3,4-dihydro-2,5,7,8-tetramethyl-2H-1-benzopyran-6ol], the IC50 is over 1000 nM. For the compound `Cc1c(C)c2c(c(C)c1O)CCC(C)(C#Cc1ccc(F)c(F)c1)O2` (racemic) [Example 36, rac-2-[(3,4-Difluorophenyl)ethynyl]-3,4-dihydro-2,5,7,8-tetramethyl-2H-1-benzopyran-6-ol], the IC50 is over 1000 nM.

Values taken from patent US5015661A, “Chromanes and their pharmaceutical compositions and methods” (Hoffmann-La Roche Inc., priority 1989, dated 1991).
